Values quoted from earlier work, collected in patent publication US9988635B2, “Modulation of growth hormone receptor expression and insulin-like growth factor expression” (Antisense Therapeutics Limited, priority 2003, dated 2018).

Assays:
[1] = cited from earlier work
[2] = system: serum IGF-I; conditions: animal models; decreased tumor volume in breast cancer; cited from earlier work

Substance: Pegvisomant [Trovert]
- drop-out rate ([1]; clinical trial experience): 10%
- serum insulin-like growth factor-I levels reduced by ([1]; human therapeutic Trovert doses, 12 week and greater than 1 year studies): 50%
- antibodies being made to Trovert, time of dosing ([1]; immunogenicity): ≤ 1 month
- effective in % of patients ([1]; patients with acromegaly): 90-95%
- reduction of serum IGF-I [2]: 20-50%
